This passage reports EC50 results from patent US20200123146A1, “HETEROCYCLIC INTEGRIN AGONISTS” (GB006, Inc., priority 2016, published 2020).

In the experiment the target is T1, integrin CD11b/CD18 (K562 CD11b/CD18 cells) (Homo sapiens, UniProt P05107+P11215).
T1 construct: host or cells: K562 cells stably transfected with wild-type CD11b/CD18
Briefly: K562 cell adhesion assay with immobilized ligands. Type of experiment: cell-based. Conditions: cell-based adhesion assay, K562 cells, 30 min at 37° C. The text has this:
Cell Lines. K562 cells (ATCC) stably transfected with wild-type integrin CD11b/CD18 (K562 CD11b/CD18) have been described previously (Park, etal. J Biomol Screen, 2007. 12(3): 406; Gupta, et al., Blood, 2007. 109(8): 3513; incorporated herein by reference in their entirety). Mutant CD11bE320A has been described previously (Alonso, et al. Curr Biol, 2002. 12(10): R340; incorporated herein by reference in its entirety). K562 cells stably transfected with mutant integrin CD11bE320A/CD18 (K562 E320A) were generated according to literature protocols (Park, supra; Gupta, supra). All cell lines were maintained in Iscove's Modified Dulbecco's Medium (IMDM) supplemented with 10% heat-inactivated fetal bovine serum, 50 IU/ml penicillin and streptomycin and 0.5 mg/ml G418.
K562 Cell Adhesion Assay. Cell adhesion assays with immobilized ligands were performed as previously described (Park, supra). Assays with all different K562 cell lines (K562, K562 CD11b/CD18 and K562 E320A) were performed in an identical fashion. Briefly, 384-well Highbind microtiter plates were coated with a 30 μL solution of ligand in Phosphate Buffered Saline, pH 7.4 containing 1 mM each of Ca^2+ and Mg^2+ ions (PBS^++) overnight at 4° C. Ligand Fg was coated at a concentration of 5-15 μg/mL and iC3b at 1-5 μg/mL. Heterodimer specific mAb IB4 was coated at 1-20 μg/mL. Subsequently, the non-specific sites in the wells were blocked by incubation with 1% non-fat milk in Tris Buffered Saline (TBS), pH 7.4, at room temperature for 1 h. Next, the wells were washed three times with TBS. K562 cells were suspended in the assay buffer (TBS containing 1 mM each of Ca^2+ and Mg^2+ ions (TBS^++)) and were transferred to the ligand-coated wells (30,000 cells/well). Stock solutions of the integrin agonists were prepared by dissolving the compounds in DMSO at a concentration of 2-10 mM. Final concentration of DMSO in the assay was approximately 1-2%. K562 cells were incubated in the presence of increasing concentration of integrin agonist for 30 min at 37° C. To dislodge non-adherent cells, the assay plates were gently inverted and kept in the inverted position for 30 min at room temperature. Cells remaining adherent were fixed using formaldehyde and were quantitated using imaging microscopy, as previously described (Park, supra).
Broadly, the EC50 is the concentration at which the effect is half-maximal. Low values mean a more potent agent, high ones a less potent agent. As for `Cc1ccc(CN2C(=O)/C(=C/c3ccc(-c4ccc(C(=O)O)cc4)o3)SC2=S)cc1C` [Compound 38, (Z)-4-(5-((3-(3,4-Dimethylbenzyl)-4-oxo-2-thioxothiazolidin-5-ylidene)methyl)furan-2-yl)benzoic acid], the EC50 lay within 100 to 250 nM. The compound `COc1ccccc1CN1C(=O)/C(=C/c2ccc(-c3ccc(C(=O)O)cc3)o2)SC1=S` [Compound 27, (Z)-4-(5-((3-(2-Methoxybenzyl)-4-oxo-2-thioxothiazolidin-5-ylidene)methyl)furan-2-yl)benzoic acid] had an EC50 of 250 to 1000 nM. Under `COC(=O)c1ccc(-c2ccc(/C=C3\SC(=S)N(Cc4ccc(F)cc4)C3=O)o2)cn1` [Compound 16, Methyl (Z)-5-(5-((3-(4-fluorobenzyl)-4-oxo-2-thioxothiazolidin-5-ylidene)methyl)furan-2-yl)picolinate] stands 100 to 250 nM; under `COC(=O)c1ccc(-c2cccc(/C=C3\SC(=S)N(Cc4ccccc4)C3=O)n2)cc1` [Compound 24, Methyl (Z)-4-(6-((3-benzyl-4-oxo-2-thioxothiazolidin-5-ylidene)methyl)pyridin-2-yl)benzoate], above 10000 nM.

In turn, `O=C(O)c1ccc(-c2ccc(/C=C3\SC(=S)N(CC4CCCCC4)C3=O)o2)cc1` [Compound 40, (Z)-4-(5-((3-(Cyclohexylmethyl)-4-oxo-2-thioxothiazolidin-5-ylidene)methyl)furan-2-yl)benzoic acid] had a concentration giving a half-maximal response (EC50) of 1000 to 10000 nM.

`O=C(O)c1ccc(-c2nccc(/C=C3\SC(=S)N(Cc4ccccc4)C3=O)n2)cc1` [Compound 19, (Z)-4-(4-((3-Benzyl-4-oxo-2-thioxothiazolidin-5-ylidene)methyl)pyrimidin-2-yl)benzoic acid] returned a concentration giving a half-maximal response (EC50) of 1000 to 10000 nM. Next, `O=C(O)c1ccc(-c2cccc(/C=C3\SC(=S)N(Cc4ccccc4)C3=O)c2)cc1` [Compound 17, (Z)-3′-((3-Benzyl-4-oxo-2-thioxothiazolidin-5-ylidene)methyl)-[1,1′-biphenyl]-4-carboxylic acid]: 1000 to 10000 nM; `CN1C(=S)N(Cc2ccccc2)C(=O)/C1=C/c1ccc(-c2ccc(C(=O)O)cc2)o1` [Compound 5, (Z)-4-(5-((1-Benzyl-3-methyl-5-oxo-2-thioxoimidazolidin-4-ylidene)methyl)furan-2-yl)benzoic acid]: above 10000 nM. `CC(C)c1ccc(CN2C(=O)/C(=C/c3ccc(-c4ccc(C(=O)O)cc4)o3)SC2=S)cc1` [Compound 39, (Z)-4-(5-((3-(4-Isopropylbenzyl)-4-oxo-2-thioxothiazolidin-5-ylidene)methyl)furan-2-yl)benzoic acid] yielded a half-maximal effective concentration (EC50) of 250 to 1000 nM. Under `Cc1cccc(CN2C(=O)/C(=C/c3ccc(-c4ccc(C(=O)O)cc4)o3)SC2=S)c1` [Compound 28, (Z)-4-(5-((3-(3-Methylbenzyl)-4-oxo-2-thioxothiazolidin-5-lidene)methyl)furan-2-yl)benzoic acid] stands 250 to 1000 nM; under `Cc1ccccc1CN1C(=O)/C(=C/c2ccc(-c3ccc(C(=O)O)cc3)o2)SC1=S` [Compound 26, (Z)-4-(5-((3-(2-Methylbenzyl)-4-oxo-2-thioxothiazolidin-5-ylidene)methyl)furan-2-yl)benzoic acid], 250 to 1000 nM. Under `O=C(O)c1ccc(-c2ccc(/C=C3\SC(=S)N(Cc4ccccc4)C3=O)o2)nc1` [Compound 14, (Z)-6-(5-((3-Benzyl-4-oxo-2-thioxothiazolidin-5-ylidene)methyl)furan-2-yl)nicotinic acid] stands 250 to 1000 nM; under `O=C(O)c1ccc(-c2cccc(/C=C3\SC(=S)N(Cc4ccccc4)C3=O)n2)cc1` [Compound 18, (Z)-4-(6-((3-Benzyl-4-oxo-2-thioxothiazolidin-5-ylidene)methyl)pyridin-2-yl)benzoic acid], 1000 to 10000 nM; under `O=C(O)c1ccc(-c2ccc(/C=C3\SC(=S)N(Cc4ccc(Cl)cc4)C3=O)o2)cc1` [Compound 35, (Z)-4-(5-((3-(4-Chlorobenzyl)-4-oxo-2-thioxothiazolidin-5-ylidene)methyl)furan-2-yl)benzoic acid], 100 to 250 nM. Under `O=C(O)c1ccc(-c2ccnc(/C=C3\SC(=S)N(Cc4ccc(F)cc4)C3=O)c2)cc1` [Compound 22, (Z)-4-(2-((3-(4-Fluorobenzyl)-4-oxo-2-thioxothiazolidin-5-ylidene)methyl)pyridin-4-yl)benzoic acid] stands 1000 to 10000 nM; under `COc1cccc(CN2C(=O)/C(=C/c3ccc(-c4ccc(C(=O)O)cc4)o3)SC2=S)c1` [Compound 29, (Z)-4-(5-((3-(3-Methoxybenzyl)-4-oxo-2-thioxothiazolidin-5-ylidene)methyl)furan-2-yl)benzoic acid], 250 to 1000 nM; under `O=C(O)c1ccc(-c2ccc(CN3CC(=O)N(Cc4ccccc4)C3=O)o2)cc1` [Compound 11, 4-(5-((3-Benzyl-2,4-dioxoimidazolidin-1-yl)methyl)furan-2-yl)benzoic acid], above 10000 nM. The compound `COC(=O)c1ccc(-c2ccc(/C=C3\OC(=S)N(Cc4ccc(F)cc4)C3=O)o2)cn1` [Compound 10, methyl (Z)-5-(5-((3-(4-fluorobenzyl)-4-oxo-2-thioxooxazolidin-5-ylidene)methyl)furan-2-yl)picolinate] came in with a 50% effective concentration (EC50) of 250 to 1000 nM. Next, `O=C(O)c1ccc(-c2ccc(/C=C3\SC(=S)N(Cc4ccccc4Cl)C3=O)o2)cc1` [Compound 36, (Z)-4-(5-((3-(2-Chlorobenzyl)-4-oxo-2-thioxothiazolidin-5-ylidene)methyl)furan-2-yl)benzoic acid]: 250 to 1000 nM; `O=C(O)c1ccc(-c2ccc(/C=C3\SC(=S)N(Cc4ccccc4O)C3=O)o2)cc1` [Compound 41, (Z)-4-(5-((3-(2-hydroxybenzyl)-4-oxo-2-thioxothiazolidin-5-ylidene)methyl)furan-2-yl)benzoic acid]: 1000 to 10000 nM. Next, `CN1C(=O)N(Cc2ccccc2)C(=O)/C1=C/c1ccc(-c2ccc(C(=O)O)cc2)o1` [Compound 2, (Z)-4-(5-((1-Benzyl-3-methyl-2,5-dioxoimidazolidin-4-ylidene)methyl)furan-2-yl)benzoic acid]: above 10000 nM; `CCOC(=O)c1ccc(-c2ccc(CN3CC(=O)N(Cc4ccccc4)C3=O)o2)cc1` [Compound 6, Ethyl 4-(5-((3-benzyl-2,4-dioxoimidazolidin-1-yl)methyl)furan-2-yl)benzoate]: above 10000 nM; `O=C(O)c1ccc(-c2ccc(/C=C3\SC(=S)N(Cc4cccc(Cl)c4)C3=O)o2)cc1` [Compound 30, (Z)-4-(5-((3-(3-Chlorobenzyl)-4-oxo-2-thioxothiazolidin-5-ylidene)methyl)furan-2-yl)benzoic acid]: 100 to 250 nM. Next, `O=C(O)c1ccc(-c2ccc(/C=C3\SC(=S)N(Cc4ccccc4)C3=O)s2)cc1` [Compound 25, (Z)-4-(5-((3-Benzyl-4-oxo-2-thioxothiazolidin-5-ylidene)methyl)thiophen-2-yl)benzoic acid]: 100 to 250 nM; `O=C(O)c1ccc(-c2ccc(/C=C3\SC(=S)N(Cc4ccc(F)cc4)C3=O)o2)cc1` [Compound 32, (Z)-4-(5-((3-(4-Fluorobenzyl)-4-oxo-2-thioxothiazolidin-5-ylidene)methyl)furan-2-yl)benzoic acid]: 100 to 250 nM.
